In brackets after ≈: the same amount, converted by molar mass.
Tested on: Mycobacterium tuberculosis
Experiment: Antitubercular activity against multi-drug-resistant Mycobacterium tuberculosis M22 assessed as bacterial growth inhibition measured for 9 days
Assay type: functional
Conditions: M22, 216 h, time 9 day

In the case of `O=C(CCc1ccc(O)cc1)c1c(O)cc(O)cc1O` [PHLORETIN], the MIC90 is reported as 182 µM (≈ 49.9 µg/mL).

— ChEMBL document CHEMBL5365456, “Isolation and biological activity of natural chalcones based on antibacterial mechanism classification” (Bioorg Med Chem, 2023)
